Laboratory results: patent US6667025B2 (Mitsubishi Pharma Corporation, priority 1997, dated 2003)

How the values were obtained:
[1] = tested on: IL-2 mRNA in alloantigen-stimulated splenic T cells; test: IL-2 mRNA expression in allogeneic mixed lymphocyte culture (PCR); assay type: cell-based, rat; settings: 48 hours
Description: The housekeeping gene HPRT was used as an internal control in order to compare levels of IL-2 mRNA levels relative to the HPRT mRNA levels, as detailed below.
Allogeneic mixed lymphocyte culture was carried out by using nylon-nonadherent spleen cells of F344 rat (RT1^1v1) as responder cells and the spleen cells of WKAH rat (RT1^k) pretreated with 40 μg/ml of mitomycin C for 30 min as stimulator cells. […] After culturing for 48 hours, the cells were recovered by centrifugation. The expression of IL-2 mRNA in the cells was determined by a polymerase chain reaction (PCR) method.
Total RNA was reverse transcribed in […] of buffer solution containing 10 mmol/L Tris-HCl (pH 8.3),50 mM KCl, 5 mM MgCl2, 1 mM each dNTP (dATP, dGTP, dTTP and dCTP), 60 U RNase inhibitor (Takara Ltd. Tokyo, Japan), 15 U avian myelobalastosis virus reverse transcriptase (Takara Ltd.) and 150 pmol random 9-mers at 30° C. for 10 min and 42° C. for 30 min. Primer sequences for IL-2 and hypoxanthine-guanine phosphoribosyltransferase (HPRT) were taken from the previous report (44).
The length in base pairs of the PCR products of IL-2 and HPRT are 351 and 608 bp respectively. […] Fluorescence intensity of the specific bands was visualized by fluorescence image analyzer (FLUOR IMAGER 575®, Molecular Dynamics).

[2] = tested on: cardiac allograft, WKAH donors and ACI recipients; test: Heterotopic cardiac allograft survival, MHC-incompatible rat strains; assay type: in vivo
[3] = tested on: skin allograft, WKAH donor and F344 recipients; assay type: in vivo
Description: Two MHC-incompatible rat strains were selected, WKAH donor (RT1^k) and F344 recipients (RT1^IV1). Full-thickness skin grafts (2.0×2.0 cm square) were transplanted to the lateral thorax of recipients and wrapped with sterile, bactericidal gauze. The chest was then wrapped with an elastic bandage. Five days after transplantation, the wraps were removed and the grafts inspected daily for rejection. Rejection was defined as more than 90% necrosis of graft epithelium.

C=CC[C@@H]1/C=C(\C)C[C@H](C)C[C@H](OC)[C@H]2O[C@@](O)(C(=O)C(=O)N3CCCC[C@H]3C(=O)O[C@H](/C(C)=C/[C@@H]3CC[C@@H](O)[C@H](OC)C3)[C@H](C)[C@@H](O)CC1=O)[C@H](C)C[C@@H]2OC [TRL, tacrolimus, reference compound]
concentration that inhibited IL-2 mRNA expression [1]: ≥ 1 nM | induction of long-term cardiac graft survival ([2]; even at the highest dose tested): hardly induced long-term graft survival | dose that significantly prolonged cardiac allograft survival ([2]; vs control): ≥ 1 mg/kg | median survival time (MST) of skin graft ([3]; 10 mg/kg for 14 days): 22.5 days | oral dose that significantly prolonged skin graft survival ([3]; oral, WKAH to F344 rats): ≥ 0.3 mg/kg
